ChEMBL document CHEMBL1132232, “7alpha-Iodo and 7alpha-fluoro steroids as androgen receptor-mediated imaging agents” (J Med Chem, 1999)

Target: T1, Androgen receptor (Homo sapiens) (UniProt P10275)
T1 sequence (whole entry): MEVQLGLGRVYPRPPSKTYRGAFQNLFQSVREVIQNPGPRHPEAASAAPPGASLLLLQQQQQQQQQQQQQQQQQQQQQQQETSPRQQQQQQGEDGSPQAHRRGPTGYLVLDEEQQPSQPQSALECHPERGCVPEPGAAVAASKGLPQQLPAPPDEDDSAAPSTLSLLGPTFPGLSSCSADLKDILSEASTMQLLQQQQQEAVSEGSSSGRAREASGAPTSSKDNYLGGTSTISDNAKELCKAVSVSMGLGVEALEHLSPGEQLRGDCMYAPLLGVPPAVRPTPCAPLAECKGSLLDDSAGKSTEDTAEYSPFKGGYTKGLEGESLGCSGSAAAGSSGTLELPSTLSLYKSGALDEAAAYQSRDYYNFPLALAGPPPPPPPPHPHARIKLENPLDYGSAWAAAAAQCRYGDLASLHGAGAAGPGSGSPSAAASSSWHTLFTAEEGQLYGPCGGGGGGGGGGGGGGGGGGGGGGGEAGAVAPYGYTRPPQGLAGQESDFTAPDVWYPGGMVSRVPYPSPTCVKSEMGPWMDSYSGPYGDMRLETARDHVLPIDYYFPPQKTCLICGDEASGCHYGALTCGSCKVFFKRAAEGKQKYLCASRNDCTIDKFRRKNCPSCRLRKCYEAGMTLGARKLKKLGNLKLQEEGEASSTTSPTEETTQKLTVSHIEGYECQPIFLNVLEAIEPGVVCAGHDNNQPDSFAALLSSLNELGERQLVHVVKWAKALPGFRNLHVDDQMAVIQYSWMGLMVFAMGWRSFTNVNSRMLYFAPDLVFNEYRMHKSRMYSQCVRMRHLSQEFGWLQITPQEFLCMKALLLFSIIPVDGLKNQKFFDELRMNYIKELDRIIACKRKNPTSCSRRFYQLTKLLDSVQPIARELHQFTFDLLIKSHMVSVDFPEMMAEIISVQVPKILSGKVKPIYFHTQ
Conditions: CV-1
Description: Relative stimulatory activity compared to 5-alpha-DHT in CV-1 cells expressing androgen receptor

With CC12CCC(=O)CC1C[C@@H](F)[C@@H]1[C@@H]2CCC2(C)[C@H]1CC[C@]2(C)O (some centres not stated) the RSA was 418.

CC12CC[C@H]3[C@@H]([C@H](F)CC4CC(=O)CCC43C)[C@@H]1CCC2O (some centres not stated) showed an RSA of 60.
